This is an account of results in patent EP3057951B1, “METHYLENE LINKED QUINOLINYL MODULATORS OF ROR-GAMMA-T” (Janssen Pharmaceutica NV, priority 2013, dated 2015).

Assay [1] deals with T1, wild type human RORγt ligand binding domain (RORyt LBD) (Homo sapiens, UniProt P51449).
T1 construct: His-tag (N); TurboTEV protease cleavage site (ENLYFQG) (N); made in house; host or cells: E. coli (pHIS1, modified pET vector)
T1 sequence (P51449 258-518): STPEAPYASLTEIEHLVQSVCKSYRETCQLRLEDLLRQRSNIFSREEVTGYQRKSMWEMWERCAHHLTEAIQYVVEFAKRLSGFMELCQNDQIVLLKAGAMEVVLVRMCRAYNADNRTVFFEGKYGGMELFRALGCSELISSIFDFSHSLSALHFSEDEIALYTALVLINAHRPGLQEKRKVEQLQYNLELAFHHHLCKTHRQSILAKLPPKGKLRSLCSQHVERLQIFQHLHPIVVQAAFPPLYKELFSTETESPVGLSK
The experiment in a line: RORγt ThermoFluor assay (thermal shift, binding affinity KD).

Assay [2] deals with T2, wild type human RORγt LBD (Homo sapiens, UniProt P51449).
T2 construct: expressed in transfected cells; host or cells: HEK293T
T2 sequence (P51449 258-518): T1 sequence (P51449 258-518)
The experiment in a line: RORγt (LBD) Reporter Assay (GAL4-luciferase, HEK293T cells). It counts as cell-based. The settings on record: HEK293T cells; for RORγt (LBD) Reporter Assay, % inhibition @ 6 µM: 6 µM compound concentration; for inhibition at 6 µM: HEK-293T, read-out: RORγt (LBD) Reporter Assay, % inhibition @ 6 µM, 6 µM compound concentration. In general terms: A reporter such as luciferase makes a cellular process visible.

The Kd is the concentration at which binding is half-saturated. For orientation: IC50 means the concentration needed to halve the response being measured. A high value points to weaker potency. For the compound `Cc1ccc(C(O)(c2ccc3nc(Cl)c(Cc4ccc(C(F)(F)F)cc4)c(NC4CC4)c3c2)c2cnnn2C)c(C)n1` (single isomer, unassigned) [Example 144b, {2-Chloro-4-(cyclopropylamino)-3-[4-(trifluoromethyl)benzyl]quinolin-6-yl}(2,6-dimethylpyridin-3-yl)(1-methyl-1H-1,2,3-triazol-5-yl)methanol], in assay [1], the Kd stood at 2300 nM. In assay [2], the “RORγt (LBD) Reporter Assay, % inhibition @ 6 µM” value (shortened to “RORγt … % inhibition @ 6 µM”) worked out at 69% and the IC50 is roughly 3700 nM.

With `Cc1ccc(C(O)(c2ccc3nc(Cl)c(Cc4ccc(C(F)(F)F)cc4)c(NC4CC4)c3c2)c2cnnn2C)c(C)n1` (single isomer, unassigned) [Example 144c, {2-Chloro-4-(cyclopropylamino)-3-[4-(trifluoromethyl)benzyl]quinolin-6-yl}(2,6-dimethylpyridin-3-yl)(1-methyl-1H-1,2,3-triazol-5-yl)methanol], the Kd in assay [1] was found to be 2.5 nM. In assay [2], the “RORγt … % inhibition @ 6 µM” value is 99% and the IC50 is 34 nM.

On to `Cn1cncc1C(O)(c1ccc(C(F)(F)F)nc1)c1ccc2nc(N3CCCC3)c(Cc3ccc(-n4cccn4)cc3)c(Cl)c2c1` (single isomer, unassigned) [Example 145b, {4-Chloro-3-[4-(1H-pyrazol-1-yl)benzyl]-2-pyrrolidin-1-ylquinolin-6-yl}(1-methyl-1H-imidazol-5-yl)[6-(trifluoromethyl)pyridin-3-yl]methanol], for which the equilibrium dissociation constant (Kd) in assay [1] turned out to be 80 nM. Moreover, in assay [2], 230 nM corresponded to half-maximal inhibition (IC50) and the inhibition at 6 µM amounted to 102%.

Take `Cn1cncc1C(O)(c1ccc(C(F)(F)F)nc1)c1ccc2nc(N3CCCC3)c(Cc3ccc(-n4cccn4)cc3)c(Cl)c2c1` (single isomer, unassigned) [Example 145c, {4-Chloro-3-[4-(1H-pyrazol-1-yl)benzyl]-2-pyrrolidin-1-ylquinolin-6-yl}(1-methyl-1H-imidazol-5-yl)[6-(trifluoromethyl)pyridin-3-yl]methanol]: the Kd in assay [1] was 810 nM. In assay [2], the “RORγt … % inhibition @ 6 µM” value stood at 95% and inhibition was half-maximal at 780 nM (IC50).

For the compound `Cn1cncc1C(O)(c1ccc(C(F)(F)F)nc1)c1ccc2nc(N3CCOCC3)c(Cc3ccc(-n4cccn4)cc3)c(Cl)c2c1` (single isomer, unassigned) [Example 146b, {4-Chloro-2-morpholin-4-yl-3-[4-(1H-pyrazol-1-yl)benzyl]quinolin-6-yl}(1-methyl-1H-imidazol-5-yl)[6-(trifluoromethyl)pyridin-3-yl]methanol], the equilibrium dissociation constant (Kd) in assay [1] turned out to be 84 nM. Besides, in assay [2], the IC50 came to 210 nM and the inhibition at 6 µM stood at 103%.

Regarding `Cn1cncc1C(O)(c1ccc(C(F)(F)F)nc1)c1ccc2nc(N3CCOCC3)c(Cc3ccc(-n4cccn4)cc3)c(Cl)c2c1` (single isomer, unassigned) [Example 146c, {4-Chloro-2-morpholin-4-yl-3-[4-(1H-pyrazol-1-yl)benzyl]quinolin-6-yl}(1-methyl-1H-imidazol-5-yl)[6-(trifluoromethyl)pyridin-3-yl]methanol], the Kd in assay [1] turned out to be 600 nM. In addition, in assay [2], the “RORγt … % inhibition @ 6 µM” value was determined as 92% and the half-inhibitory concentration (IC50) is roughly 2000 nM.

Consider `Cn1cncc1C(O)(c1ccc(C(F)(F)F)nc1)c1ccc2nc(N3CC(F)C3)c(Cc3ccc(-n4cccn4)cc3)c(Cl)c2c1` (single isomer, unassigned) [Example 147b, {4-Chloro-2-(3-fluoroazetidin-1-yl)-3-[4-(1H-pyrazol-1-yl)benzyl]quinolin-6-yl}(1-methyl-1H-imidazol-5-yl)[6-(trifluoromethyl)pyridin-3-yl]methanol], for which the equilibrium dissociation constant (Kd) in assay [1] was 60 nM. In assay [2], the half-inhibitory concentration (IC50) stood at 210 nM and the inhibition at 6 µM came out at 99%.

`Cn1cncc1C(O)(c1ccc(C(F)(F)F)nc1)c1ccc2nc(N3CC(F)C3)c(Cc3ccc(-n4cccn4)cc3)c(Cl)c2c1` (single isomer, unassigned) [Example 147c, {4-Chloro-2-(3-fluoroazetidin-1-yl)-3-[4-(1H-pyrazol-1-yl)benzyl]quinolin-6-yl}(1-methyl-1H-imidazol-5-yl)[6-(trifluoromethyl)pyridin-3-yl]methanol]: in assay [1], the Kd is 5.2 nM. For the same compound, in assay [2], the “RORγt … % inhibition @ 6 µM” value was 96% and the 50% inhibitory concentration (IC50) worked out at 52 nM.

Regarding `Cc1ccc(C(O)(c2ccc3nc(N4CC(F)(F)C4)c(Cc4ccc(C(F)(F)F)cc4)c(Cl)c3c2)c2cnnn2C)c(C)n1` (single isomer, unassigned) [Example 148b, {4-Chloro-2-(3,3-difluoroazetidin-1-yl)-3-[4-(trifluoromethyl)benzyl]quinolin-6-yl}(2,6-dimethylpyridin-3-yl)(1-methyl-1H-1,2,3-triazol-5-yl)methanol], the dissociation constant Kd in assay [1] was 56 nM. Further, in assay [2], the midpoint of inhibition, the IC50, lay at 460 nM and the inhibition at 6 µM was found to be 97%.

Turning to `Cc1ccc(C(O)(c2ccc3nc(N4CC(F)(F)C4)c(Cc4ccc(C(F)(F)F)cc4)c(Cl)c3c2)c2cnnn2C)c(C)n1` (single isomer, unassigned) [Example 148c, {4-Chloro-2-(3,3-difluoroazetidin-1-yl)-3-[4-(trifluoromethyl)benzyl]quinolin-6-yl}(2,6-dimethylpyridin-3-yl)(1-methyl-1H-1,2,3-triazol-5-yl)methanol], the dissociation constant Kd in assay [1] was 0.39 nM. For the same compound, in assay [2], the “RORγt … % inhibition @ 6 µM” value came out at 98% and the IC50 was roughly 6 nM.

`CCN(CC)c1nc2ccc(C(O)(c3ccc(Cl)cc3)c3cncn3C)cc2c(C#N)c1Cc1ccc(-n2cccn2)cc1` (single isomer, unassigned) [Example 154c, 3-(4-(1H-pyrazol-1-yl)benzyl)-6-((4-chlorophenyl)(hydroxy)(1-methyl-1H-imidazol-5-yl)methyl)-2-(diethylamino)quinoline4-carbonitrile]: the Kd in assay [1] was greater than 56000 nM. Moreover, the IC50 in assay [2] came out at 1000 nM.

Regarding `COc1nc2ccc(C(O)(c3ccc(F)cc3)C3CCN(C(C)=O)CC3)cc2c(Cl)c1Cc1ccc(-n2cccn2)cc1` (single isomer, unassigned) [Example 157b, 1-(4-((3-(4-(1H-Pyrazol-1-yl)benzyl)4-chloro-2-methoxyquinolin-6-yl)(4-fluorophenyl)(hydroxy)methyl)piperidin-1-yl)ethanone], the Kd in assay [1] came to 1.7 nM. For the same compound, in assay [2], 34 nM corresponded to half-maximal inhibition (IC50) and the inhibition at 6 µM was 102%.

In the case of `COc1nc2ccc(C(O)(c3ccc(F)cc3)C3CCN(C(C)=O)CC3)cc2c(Cl)c1Cc1ccc(-n2cccn2)cc1` (single isomer, unassigned) [Example 157c, 1-(4-((3-(4-(1H-Pyrazol-1-yl)benzyl)4-chloro-2-methoxyquinolin-6-yl)(4-fluorophenyl)(hydroxy)methyl)piperidin-1-yl)ethanone], the equilibrium dissociation constant (Kd) in assay [1] worked out at 110 nM. Besides, in assay [2], the “RORγt … % inhibition @ 6 µM” value is 99% and the midpoint of inhibition, the IC50, lay at 160 nM.

With `COc1nc2ccc(C(O)(c3ccc(F)cc3)c3cccnc3)cc2c(Cl)c1Cc1ccc(-n2cccn2)cc1` (single isomer, unassigned) [Example 158b, (3-(4-(1H-Pyrazol-1-yl)benzyl)-4-chloro-2-methoxyquinolin-6-yl)(4-fluorophenyl)(pyridin-3-yl)methanol], the dissociation constant (Kd) in assay [1] came to 140 nM. In assay [2], inhibition was half-maximal at 170 nM (IC50) and the inhibition at 6 µM was 107%.

Consider `COc1nc2ccc(C(O)(c3ccc(F)cc3)c3cccnc3)cc2c(Cl)c1Cc1ccc(-n2cccn2)cc1` (single isomer, unassigned) [Example 158c, (3-(4-(1H-Pyrazol-1-yl)benzyl)-4-chloro-2-methoxyquinolin-6-yl)(4-fluorophenyl)(pyridin-3-yl)methanol], for which, in assay [1], the equilibrium dissociation constant (Kd) came out at 7.7 nM. For the same compound, in assay [2], the “RORγt … % inhibition @ 6 µM” value is 100% and the IC50 came to 130 nM.

Consider `COc1ccc(C(O)(c2cccnc2)c2ccc3nc(OC)c(Cc4ccc(-n5cccn5)cc4)c(Cl)c3c2)cc1OC` (single isomer, unassigned) [Example 159b, (3-(4-(1H-Pyrazol-1-yl)benzyl)-4-chloro-2-methoxyquinolin-6-yl)(3,4-dimethoxyphenyl)(pyridin-3-yl)methanol], for which the Kd in assay [1] amounted to 510 nM. Also, in assay [2], the IC50 turned out to be 370 nM and the inhibition at 6 µM amounted to 107%.

As to `COc1ccc(C(O)(c2cccnc2)c2ccc3nc(OC)c(Cc4ccc(-n5cccn5)cc4)c(Cl)c3c2)cc1OC` (single isomer, unassigned) [Example 159c, (3-(4-(1H-Pyrazol-1-yl)benzyl)-4-chloro-2-methoxyquinolin-6-yl)(3,4-dimethoxyphenyl)(pyridin-3-yl)methanol], the Kd in assay [1] amounted to 14 nM. Besides, in assay [2], the “RORγt … % inhibition @ 6 µM” value is 105% and the IC50 is 51 nM.

Turning to `COc1nc2ccc(C(O)(c3ccc(F)cc3)c3cncn3C)cc2c(Cl)c1Cc1ccc(-n2cccn2)cc1` (single isomer, unassigned) [Example 160b, (3-(4-(1H-Pyrazol-1-yl)benzyl)-4-chloro-2-methoxyquinolin-6-yl)(4-fluorophenyl)(1-methyl-1H-imidazol-5-yl)methanol], the Kd in assay [1] came to 460 nM. Moreover, in assay [2], 680 nM corresponded to half-maximal inhibition (IC50) and the inhibition at 6 µM worked out at 105%.

As to `COc1nc2ccc(C(O)(c3ccc(F)cc3)c3cncn3C)cc2c(Cl)c1Cc1ccc(-n2cccn2)cc1` (single isomer, unassigned) [Example 160c, (3-(4-(1H-Pyrazol-1-yl)benzyl)-4-chloro-2-methoxyquinolin-6-yl)(4-fluorophenyl)(1-methyl-1H-imidazol-5-yl)methanol], the Kd in assay [1] stood at 12 nM. Besides, in assay [2], the “RORγt … % inhibition @ 6 µM” value amounted to 98% and the IC50 stood at 47 nM.
